According to US8119642B2, “Structurally rigid dopamine D3 receptor selective ligands and process for making them” (The United States of America as represented by the …, priority 2002, dated 2012):
Read-outs that look alike come from different tables or passages of the source.

Experiments:
[1] = biological target: T1, human D3 dopamine receptor (Homo sapiens, UniProt P35462); assay: Binding in cloned human D3 receptors in HEK cells; details: for D2/D3: ratio of D2 to D3 binding values
T1 construct: expressed in transfected cells
T1 sequence (P35462 whole entry): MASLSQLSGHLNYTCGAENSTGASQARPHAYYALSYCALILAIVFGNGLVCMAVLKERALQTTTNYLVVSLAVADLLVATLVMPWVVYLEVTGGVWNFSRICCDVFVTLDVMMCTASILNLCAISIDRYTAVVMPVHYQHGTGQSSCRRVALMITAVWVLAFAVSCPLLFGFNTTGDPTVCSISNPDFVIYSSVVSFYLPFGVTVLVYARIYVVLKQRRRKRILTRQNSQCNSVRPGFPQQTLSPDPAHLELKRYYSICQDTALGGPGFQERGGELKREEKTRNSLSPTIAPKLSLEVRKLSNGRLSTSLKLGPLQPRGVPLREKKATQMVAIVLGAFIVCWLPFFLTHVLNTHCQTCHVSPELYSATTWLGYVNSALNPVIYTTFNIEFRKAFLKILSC
From the text: (§1) Human dopamine D2-long (“D2”) and D3 ([…]) receptors were expressed in HEK cells. In brief, stably transfected HEK cells expressing the human D2-long and the D3 dopamine receptor were developed using the pIRES bicistronic expression vector (CLONTECH; Palo Alto, Calif.). […] For comparison, human dopamine D4 (“D4”) receptors were obtained from HEK 293 cells stably transfected with a PCR product o'f a human cDNA coding for the D4.4 form of the human D4 dopamine receptor.

[2] = biological target: T2, human D2-long dopamine receptor (Homo sapiens, UniProt P14416); assay: Binding in cloned human D2 receptors in HEK cells; details: 125I-IABN
T2 construct: expressed in transfected cells
T2 sequence (P14416 whole entry): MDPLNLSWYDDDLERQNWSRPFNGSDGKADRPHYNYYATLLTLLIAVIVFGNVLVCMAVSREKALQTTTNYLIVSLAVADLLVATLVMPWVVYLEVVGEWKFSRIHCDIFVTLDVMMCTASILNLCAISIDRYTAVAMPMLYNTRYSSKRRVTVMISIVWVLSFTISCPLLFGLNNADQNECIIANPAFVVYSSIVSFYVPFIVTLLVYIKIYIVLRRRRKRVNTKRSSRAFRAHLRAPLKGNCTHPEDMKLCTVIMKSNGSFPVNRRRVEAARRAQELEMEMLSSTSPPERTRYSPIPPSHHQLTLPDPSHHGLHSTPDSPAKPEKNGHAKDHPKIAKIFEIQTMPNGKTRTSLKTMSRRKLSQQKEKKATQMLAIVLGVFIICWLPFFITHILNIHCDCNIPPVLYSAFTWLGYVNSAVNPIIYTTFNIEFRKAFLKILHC
From the text: as §1

[3] = biological target: T3, D4.4 form of the human D4 dopamine receptor (Homo sapiens, UniProt P21917); assay: Binding in cloned human D4 receptors in HEK cells; details: cloned human D4.4 receptors in HEK 293 cells
T3 construct: expressed in transfected cells
T3 sequence (P21917 1-419): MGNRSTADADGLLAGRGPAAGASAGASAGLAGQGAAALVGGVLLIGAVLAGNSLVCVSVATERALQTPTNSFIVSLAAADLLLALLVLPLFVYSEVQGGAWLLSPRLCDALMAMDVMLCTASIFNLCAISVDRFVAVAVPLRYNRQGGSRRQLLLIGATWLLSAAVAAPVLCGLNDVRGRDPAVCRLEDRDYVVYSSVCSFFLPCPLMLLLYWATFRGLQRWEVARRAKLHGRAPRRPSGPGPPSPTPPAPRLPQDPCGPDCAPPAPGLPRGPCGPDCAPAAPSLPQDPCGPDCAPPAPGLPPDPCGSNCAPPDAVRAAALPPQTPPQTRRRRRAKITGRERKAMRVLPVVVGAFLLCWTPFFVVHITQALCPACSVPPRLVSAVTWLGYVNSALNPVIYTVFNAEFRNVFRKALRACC
Procedure: Human dopamine D2-long (“D2”) and D3 ([…]) receptors were expressed in HEK cells. In brief, stably transfected HEK cells expressing the human D2-long and the D3 dopamine receptor were developed using the pIRES bicistronic expression vector (CLONTECH; Palo Alto, Calif.). The level of expression of D2 or D3 receptors was determined to be greater than 2,000 fmoles/mg protein. For comparison, human dopamine D4 (“D4”) receptors were obtained from HEK 293 cells stably transfected with a PCR product o'f a human cDNA coding for the D4.4 form of the human D4 dopamine receptor. The density of binding sites is approximately 1000 fmol/mg protein.
Methods for performing in vitro dopamine receptor binding studies are described in Huang et al. J. Med. Chem. 44:1815-1826 (2001) and Luedtke et al. Synapse 38:438-439 (2000), the contents of which are hereby incorporated by reference. […] Therefore, ^125I-IABN appears to be a high affinity, selective antagonist at D2-like dopamine receptors.

sigma σ1 binding sites = details: cited from earlier work
[4] = biological target: T4, human D4.4 dopamine receptors (Homo sapiens, UniProt P21917); details: HEK 293 cells; cited from earlier work
T4 construct: expressed in transfected cells; host or cells: HEK 293 cells
T4 sequence (P21917 1-419): T3 sequence (P21917 1-419)

sigma σ2 binding sites = details: cited from earlier work
D1a dopamine receptors = D1a dopamine receptors (Homo sapiens, UniProt P21728); details: cited from earlier work
D1a dopamine receptors, sequence (P21728 whole entry): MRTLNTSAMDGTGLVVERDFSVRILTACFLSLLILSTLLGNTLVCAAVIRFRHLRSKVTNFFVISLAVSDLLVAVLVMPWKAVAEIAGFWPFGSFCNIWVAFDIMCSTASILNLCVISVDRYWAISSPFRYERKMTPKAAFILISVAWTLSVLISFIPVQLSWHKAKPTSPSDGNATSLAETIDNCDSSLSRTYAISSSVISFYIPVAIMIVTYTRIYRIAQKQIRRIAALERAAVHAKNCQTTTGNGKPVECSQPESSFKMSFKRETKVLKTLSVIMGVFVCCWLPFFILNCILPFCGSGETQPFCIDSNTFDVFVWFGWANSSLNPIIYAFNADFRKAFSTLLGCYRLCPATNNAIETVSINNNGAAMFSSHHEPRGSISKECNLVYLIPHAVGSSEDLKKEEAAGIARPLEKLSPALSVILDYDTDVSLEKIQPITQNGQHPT

hD3 = biological target: T5, hD3 (Homo sapiens, UniProt P35462); assay: D3 functional assay, stimulation of mitogenesis in CHO cells (agonist assay); format: cell-based; details: for EC50: [3H]thymidine, read-out: Agonist EC50 (nM) ± S.E.M.
T5 construct: expressed in transfected cells; host or cells: CHOp- cells, kept under G418
T5 sequence (P35462 whole entry): as the sequence (P35462 whole entry) above
Procedure: The cells were incubated at 37° C. in α-MEM with 10% FBS, 0.05% penicillin-streptomycin, and 200 μg/mL of G418. After 48 hours, the cells were rinsed twice with serum-free α-MEM and incubated for 24 hours at 37° C. In the functional assay for agonism, the medium was removed and replaced with 90 μl of serum-free α-MEM and 10 μl of test compound in sterile water; in the antagonist assay, the test compound was diluted in sterile water plus 30 nM quinpirole. After another 24-hour incubation at 37° C., 0.25 μCi of [^3H]thymidine was added to each well and the plates were further incubated for 2 hours at 37° C. The cells were then trypsinized, and the plates were filtered and counted as usual in the art. Quinpirole was run on every plate as an internal standard.

[5] = cloned human D3 receptors in HEK cells, 125I-IABN, read-out: D3 binding data

Ki [1, 5] [nM] | Ki [2] [nM] | Structure (SMILES) | further results
1.6 ± 1 | 25 ± 10.8 | O=C(NC/C=C/CN1CCN(c2cccc(Cl)c2Cl)CC1)c1ccc(Cl)cc1 [PG01007] | –
– | 13.1 ± 5.5 | O=C(NC/C=C/CN1CCN(c2cccc(Cl)c2Cl)CC1)c1ccccc1Cl [PG01009] | –
– | 8.1 ± 2.7 | O=C(NC/C=C/CN1CCN(c2cccc(Cl)c2Cl)CC1)c1ccc(F)cc1 [PG01012] | –
– | 13.7 ± 4.8 | O=C(NCC=CCN1CCN(c2cccc(Cl)c2Cl)CC1)c1ccc(O)cc1 [PG01015, N-{4-[4-(2,3-Dichloro-phenyl)-piperazin-1-yl]-but-2-enyl}-4-hydroxy-benzamide] | Ki [1]: 0.4 nM; D2/D3 [1]: 34; Ki [3]: 356 ± 26.5 nM
– | 12.7 ± 4.1 | O=C(NC/C=C/CN1CCN(c2cccc(Cl)c2Cl)CC1)c1ccccc1I [PG01018] | –
– | 70 ± 7.6 | O=C(NC/C=C/CN1CCN(c2cccc(Cl)c2Cl)CC1)c1cnc2ccccc2n1 [PG01020] | Ki [3]: 1110 ± 555 nM
– | 11.2 ± 5.6 | O=C(NC/C=C/CN1CCN(c2cccc(Cl)c2Cl)CC1)c1cccnc1 [PG01022] | –
– | 7.3 ± 3.2 | O=C(NC/C=C/CN1CCN(c2cccc(Cl)c2Cl)CC1)c1ccccc1O [PG01025] | –
– | 5.3 ± 3 | COc1ccccc1C(=O)NC/C=C/CN1CCN(c2cccc(Cl)c2Cl)CC1 [PG01027] | –
– | 10.5 ± 4.5 | O=C(NC/C=C/CN1CCN(c2cccc(Cl)c2Cl)CC1)c1ccccc1[N+](=O)[O-] [PG01029] | –
– | 31.2 ± 3.1 | O=C(NC/C=C/CN1CCN(c2cccc(Cl)c2Cl)CC1)c1ccccn1 [PG01034] | Ki [1]: 2 ± 0.6 nM
– | 17.2 ± 4.2 | O=C(NC/C=C/CN1CCN(c2cccc(Cl)c2Cl)CC1)c1ccncc1 [PG01035] | –
– | 81.9 ± 20.7 | O=C(NC/C=C/CN1CCN(c2cccc(Cl)c2Cl)CC1)c1ccc(-c2ccccn2)cc1 [PG01037] | Ki [3]: 505 ± 62.5 nM
2.7 ± 0.8 | 25.6 ± 6.8 | Nc1ccccc1C(=O)NC/C=C/CN1CCN(c2cccc(Cl)c2Cl)CC1 [PG01038] | –
– | 63.3 ± 16.5 | O=C(NC/C=C/CN1CCN(c2cccc(Cl)c2Cl)CC1)c1ccc(-c2cccnc2)cc1 [PG01041] | Ki [3]: 486 ± 157 nM
– | 101 ± 16.9 | O=C(NC/C=C/CN1CCN(c2cccc(Cl)c2Cl)CC1)c1cc2ccccc2o1 [PG01055] | –

Continued, compound first:

Structure (SMILES) | Ki [1, 5] [nM] | Ki [2] [nM] | further results
O=C(NCC=CCN1CCN(c2cccc(Cl)c2Cl)CC1)c1ccc(I)cc1 [EEC 017, N-{4-[4-(2,3-Dichloro-phenyl)-piperazin-1-yl]-but-2-enyl}-4-iodo-benzamide] | 4.2 ± 1.5 | 35.4 ± 7.6 | D2/D3 [1]: 8
O=C(NC/C=C/CN1CCN(c2cccc(Cl)c2Cl)CC1)c1cccc(I)c1 [EEC 019] | 3.9 ± 1.2 | – | –
O=C(NC/C=C/CN1CCN(c2cccc(Cl)c2Cl)CC1)c1ccc([N+](=O)[O-])cc1 [EEC 027] | 0.6 ± 0.2 | – | Ki [3]: 461 ± 187 nM
O=C(NC/C=C/CN1CCN(c2cccc(Cl)c2Cl)CC1)c1cccc(Cl)c1 [EEC 063] | 2.1 ± 1.1 | – | –
COc1ccc(C(=O)NC/C=C/CN2CCN(c3cccc(Cl)c3Cl)CC2)cc1 [EEC 067] | – | 34.7 ± 11.4 | –
COc1cccc(C(=O)NC/C=C/CN2CCN(c3cccc(Cl)c3Cl)CC2)c1 [EEC 069] | 4 ± 1.6 | 56.9 ± 19.1 | –
COc1cc([125I])cc(C(=O)NC2CC3CCCC(C2)N3Cc2ccccc2)c1OC (stereo not drawn) [IABN] | – | – | affinity for sigma σ1 binding sites (sigma σ1 binding sites): low affinity; fold lower affinity at human D4.4 than at D2 and D3 receptors [4]: 7- to 10 fold; affinity for sigma σ2 binding sites (sigma σ2 binding sites): low affinity; affinity for D1a dopamine receptors (D1a dopamine receptors): low affinity
O=C(NCC#CCN1CCN(c2cccc(Cl)c2Cl)CC1)c1ccccc1 [JJC 2-062] | 127 ± 10 | 491 ± 108 | –
O=C(NC/C=C/CN1CCN(c2cccc(Cl)c2Cl)CC1)c1ccccc1 [JJC 2-068] | 0.6 ± 0.1 | – | EC50 (hD3): > 10000 nM
O=C(NC/C=C/CN1CCN(c2cccc(Cl)c2Cl)CC1)c1ccc2c(c1)Cc1ccccc1-2 [JJC 2-071] | 3.4 ± 2.9 | 186 ± 8 | % Max Stim. ± S.E.M. (hD3): 44.1 ± 0.9%
O=C(NCC#CCN1CCN(c2cccc(Cl)c2Cl)CC1)c1cccc2c1-c1ccccc1C2 [JJC 2-077] | 318 ± 32 | 592 ± 27 | –
O=C(NCC#CCN1CCN(c2cccc(Cl)c2Cl)CC1)c1ccc2c(c1)Cc1ccccc1-2 [JJC 2-078] | 41.5 ± 5.4 | 1650 ± 692 | –
O=C(NC/C=C\CN1CCN(c2cccc(Cl)c2Cl)CC1)c1ccccc1 [JJC 2-083] | – | – | EC50 (hD3): > 10000 nM
O=C(NC/C=C\CN1CCN(c2cccc(Cl)c2Cl)CC1)c1ccc2c(c1)Cc1ccccc1-2 [JJC 2-085] | 3.8 ± 1.4 | 61.1 ± 19.2 | –
O=C(NC/C=C/CN1CCN(c2cccc(Cl)c2Cl)CC1)c1cc2ccccc2s1 [PG01030] | – | – | Ki [1]: 1.3 ± 0.5 nM
